Measurements published in ChEMBL document CHEMBL4321821, “Opioids as Substrates and Inhibitors of the Genetically Highly Variable Organic Cation Transporter OCT1” (J Med Chem, 2019).
Activity calls are given as the source filed them. The calls are words filed in the database; no cut-off is given here.

Experiments:
[1] = Unbound maximal portal vein concentration of in human at 5 mg, po dosed as immediate release formulation; format: ADME, organism-based; conditions: in vivo
OCT1 (SLC22A1) [2] = biological target: T1, OCT1 (SLC22A1) (Homo sapiens, UniProt O15245); experiment: Substrate activity at human OCT1 expressed in HEK293 cells assessed as increase in compound uptake at 0.1 uM incubated for 2 mins by LC-MS/MS analysis relative to control empty vector transfected cells; format: cell-based; conditions: HEK293 cells that express human OCT1, read-out: FC
T1 sequence (O15245 whole entry): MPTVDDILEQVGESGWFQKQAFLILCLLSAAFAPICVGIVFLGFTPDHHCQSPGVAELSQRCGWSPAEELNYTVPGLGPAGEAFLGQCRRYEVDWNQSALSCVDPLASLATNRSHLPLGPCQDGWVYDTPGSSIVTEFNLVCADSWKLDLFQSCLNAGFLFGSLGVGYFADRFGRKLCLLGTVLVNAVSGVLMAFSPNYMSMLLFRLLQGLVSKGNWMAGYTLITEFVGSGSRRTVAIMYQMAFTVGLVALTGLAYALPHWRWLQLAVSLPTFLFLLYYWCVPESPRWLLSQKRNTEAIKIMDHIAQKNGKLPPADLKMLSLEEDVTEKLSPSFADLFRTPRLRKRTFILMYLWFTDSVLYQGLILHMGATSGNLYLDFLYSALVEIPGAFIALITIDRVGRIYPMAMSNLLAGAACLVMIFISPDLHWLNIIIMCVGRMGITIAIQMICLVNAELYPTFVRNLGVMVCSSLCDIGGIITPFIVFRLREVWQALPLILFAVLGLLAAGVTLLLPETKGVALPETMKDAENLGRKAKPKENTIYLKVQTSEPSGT

[3] = Cmax in human at 10 mg, po dosed as controlled release formulation; format: ADME, organism-based; set-up: dose 10 mg, route oral; conditions: in vivo
[4] = Unbound maximal portal vein concentration of in human at 10 mg, po dosed as controlled release formulation; format: ADME, organism-based; conditions: in vivo
in vitro = conditions: PAMPA
Description: Passive membrane permeability by LC-MS/MS analysis based PAMPA

[5] = Unbound Cmax in human at 5 mg, po dosed as immediate release formulation; format: ADME, organism-based; conditions: in vivo
OCT1 (SLC22A1) [6] = biological target: T1, OCT1 (SLC22A1); experiment: Substrate activity at human OCT1 expressed in HEK293 cells assessed as increase in compound uptake at 0.05 uM incubated for 2 mins by LC-MS/MS analysis relative to control empty vector transfected cells; format: cell-based; conditions: HEK293 cells that express human OCT1, read-out: FC
[7] = Ratio of unbound Cmax in human at 10 mg, po dosed as controlled release formulation to inhibition of human OCT1 expressed in HEK293 cells assessed as reduction in ASP+ substrate uptake by microplate reader based analysis; format: ADME, organism-based; conditions: in vivo
[8] = Ratio of unbound Cmax in human at 5 mg, po dosed as immediate release formulation to inhibition of human OCT1 expressed in HEK293 cells assessed as reduction in ASP+ substrate uptake by microplate reader based analysis; format: ADME, organism-based; conditions: in vivo
OCT1 (SLC22A1) [9] = biological target: T1, OCT1 (SLC22A1); experiment: Substrate activity at human OCT1 expressed in HEK293 cells assessed as increase in compound uptake at 0.5 uM incubated for 2 mins by LC-MS/MS analysis relative to control empty vector transfected cells; format: cell-based; conditions: HEK293 cells that express human OCT1, read-out: FC
[10] = Unbound Cmax in human at 10 mg, po dosed as controlled release formulation; format: ADME, organism-based; conditions: in vivo
[11] = biological target: T2, Solute carrier family 22 member 1 (Homo sapiens, UniProt O15245); experiment: Inhibition of human OCT1 expressed in HEK293 cells assessed as reduction in ASP+ substrate uptake by microplate reader based analysis; format: cell-based
T2 sequence (O15245 whole entry): T1 sequence (O15245 whole entry)

[12] = Ratio of unbound maximal portal vein concentration in human at 5 mg, po dosed as immediate release formulation to inhibition of human OCT1 expressed in HEK293 cells assessed as reduction in ASP+ substrate uptake by microplate reader based analysis; format: ADME, organism-based; conditions: in vivo
[13] = Cmax in human at 5 mg, po dosed as immediate release formulation; format: ADME, organism-based; set-up: dose 5 mg, route oral; conditions: in vivo
[14] = Ratio of unbound maximal portal vein concentration in human at 10 mg, po dosed as controlled release formulation to inhibition of human OCT1 expressed in HEK293 cells assessed as reduction in ASP+ substrate uptake by microplate reader based analysis; format: ADME, organism-based; conditions: in vivo
[15] = Unbound Cmax in human at 4 mg, po; format: ADME; conditions: in vivo
[16] = Cmax in human at 4 mg, po; format: ADME; set-up: dose 4 mg, route oral; conditions: in vivo
HEK293 [17] = experiment: Substrate activity at human OCT1*7 allele mutant expressed in HEK293 cells assessed as increase in compound uptake at 0.1 uM incubated for 2 mins by LC-MS/MS analysis relative to control empty vector transfected cells; format: cell-based
HEK293 [18] = experiment: Substrate activity at human OCT1*4 allele mutant expressed in HEK293 cells assessed as increase in compound uptake at 0.1 uM incubated for 2 mins by LC-MS/MS analysis relative to control empty vector transfected cells; format: cell-based
HEK293 [19] = experiment: Substrate activity at human OCT1*3 allele mutant expressed in HEK293 cells assessed as increase in compound uptake at 0.1 uM incubated for 2 mins by LC-MS/MS analysis relative to control empty vector transfected cells; format: cell-based
HEK293 [20] = experiment: Substrate activity at human OCT1*8 allele mutant expressed in HEK293 cells assessed as increase in compound uptake at 0.1 uM incubated for 2 mins by LC-MS/MS analysis relative to control empty vector transfected cells; format: cell-based
[21] = biological target: T2, Solute carrier family 22 member 1; experiment: Substrate activity at OCT1 in primary human hepatocytes assessed as increase in compound uptake at 0.1 uM incubated for 2 mins by LC-MS/MS analysis relative to control; format: cell-based
[22] = Unbound maximal portal vein concentration of in human at 4 mg, po; format: ADME, tissue-based; conditions: in vivo
HEK293 [23] = experiment: Substrate activity at human OCT1*6 allele mutant expressed in HEK293 cells assessed as increase in compound uptake at 0.1 uM incubated for 2 mins by LC-MS/MS analysis relative to control empty vector transfected cells; format: cell-based
HEK293 [24] = experiment: Substrate activity at human OCT1*2 allele mutant expressed in HEK293 cells assessed as increase in compound uptake at 0.1 uM incubated for 2 mins by LC-MS/MS analysis relative to control empty vector transfected cells; format: cell-based
[25] = Cmax in human at 50 mg, po dosed as slow release formulation; conditions: in vivo
[26] = Cmax in human at 10 mg, po dosed as immediate release formulation; conditions: in vivo
[27] = Cmax in human at 10 mg, im; conditions: in vivo
[28] = Cmax in human at 10 mg, iv; conditions: in vivo
[29] = Intrinsic clearance in human liver microsomes; format: ADME, Microsome; conditions: read-out: CLH
OCT1 (SLC22A1) [30] = biological target: T1, OCT1 (SLC22A1); experiment: Substrate activity at human OCT1 expressed in HEK293 cells assessed as increase in compound uptake by measuring Km incubated for 2 mins by LC-MS/MS analysis based Michaelis-Menten plot analysis relative to control empty vector transfected cells; format: cell-based; conditions: HEK293 cells that express human OCT1
[31] = Unbound maximal portal vein concentration of in human at 450 mg, po; format: ADME, tissue-based; conditions: in vivo
[32] = biological target: T2, Solute carrier family 22 member 1; experiment: Substrate activity at human OCT1 expressed in HEK293 cells assessed as increase in compound uptake by measuring Vmax incubated for 2 mins by LC-MS/MS analysis based Michaelis-Menten plot analysis relative to control empty vector transfected cells; format: cell-based; conditions: hek293, 2 min
[33] = Unbound Cmax in human at 450 mg, po; format: ADME; conditions: in vivo
[34] = Cmax in human at 450 mg, po; format: ADME; set-up: dose 450 mg, route oral; conditions: in vivo
HEK293 [35] = experiment: Substrate activity at human OCT1*5 allele mutant expressed in HEK293 cells assessed as increase in compound uptake at 0.1 uM incubated for 2 mins by LC-MS/MS analysis relative to control empty vector transfected cells; format: cell-based
[36] = Unbound Cmax in human at 50 mg, iv; format: ADME; conditions: in vivo
[37] = Cmax in human at 50 mg, iv; format: ADME; set-up: dose 50 mg, route intravenous; conditions: in vivo
[38] = Ratio of unbound Cmax in human at 50 mg, po to inhibition of human OCT1 expressed in HEK293 cells assessed as reduction in ASP+ substrate uptake by microplate reader based analysis; format: ADME, organism-based; conditions: in vivo
[39] = Unbound maximal portal vein concentration of in human at 50 mg, iv; format: ADME, tissue-based; conditions: in vivo
[40] = Ratio of unbound Cmax in human at 50 mg, iv to inhibition of human OCT1 expressed in HEK293 cells assessed as reduction in ASP+ substrate uptake by microplate reader based analysis; format: ADME, organism-based; conditions: in vivo
[41] = Cmax in human at 50 mg, po; format: ADME; set-up: dose 50 mg, route oral; conditions: in vivo
[42] = Unbound maximal portal vein concentration of in human at 50 mg, po; format: ADME, tissue-based; conditions: in vivo
[43] = Ratio of unbound maximal portal vein concentration in human at 50 mg, po to inhibition of human OCT1 expressed in HEK293 cells assessed as reduction in ASP+ substrate uptake by microplate reader based analysis; format: ADME, organism-based; conditions: in vivo
[44] = Ratio of unbound maximal portal vein concentration in human at 50 mg, iv to inhibition of human OCT1 expressed in HEK293 cells assessed as reduction in ASP+ substrate uptake by microplate reader based analysis; format: ADME, organism-based; conditions: in vivo
[45] = Unbound Cmax in human at 50 mg, po; format: ADME; conditions: in vivo

With COc1ccc2c3c1O[C@H]1C(=O)CC[C@@]4(O)[C@@H](C2)N(C)CC[C@]314 [OXYCODONE] the fCmax [1] was 0.54 µM, the uptake ratio at 2 min, 0.1 µM (OCT1 (SLC22A1) [2]) was 0.8 and the Cmax [3] was 0.05 µM. It also gave a fCmax [4] of 1.06 µM, a Papp (in vitro) of 179 nm/s and a fCmax [5] of 0.03 µM. For the same compound, the uptake ratio at 2 min, 0.05 µM (OCT1 (SLC22A1) [6]) was 0.9, the Ratio [7] was 0.00001 and the Ratio [8] was 0.00001. For the same compound, the uptake ratio at 2 min, 0.5 µM (OCT1 (SLC22A1) [9]) was 0.9, the fCmax [10] was 0.03 µM and the IC50 [11] was 2000 µM. The Ratio [12] was 0.0003, the Cmax [13] was 0.05 µM and the Ratio [14] was 0.001.

For CN1CC[C@]23c4c5ccc(O)c4O[C@H]2C(=O)CC[C@H]3[C@H]1C5 [HYDROMORPHONE], the fCmax [15] was 0.03 µM, the Cmax [16] was 0.04 µM and the Activity (HEK293 [17]) was “Active”. The Activity (HEK293 [18]) was “inactive”, the Activity (HEK293 [19]) was “inactive” and the Activity (HEK293 [20]) was “Active”. For the same compound, the “fold change (FC)” value [21] was 1.7, the fCmax [22] was 0.72 µM and the Activity (HEK293 [23]) was “inactive”. The IC50 [11] was 138 µM and the Activity (HEK293 [24]) was “inactive”.

Compound CN1CC[C@]23c4c5ccc(O)c4O[C@H]2[C@@H](O)C=C[C@H]3[C@H]1C5 [MORPHINE] has a Cmax [25] of 0.03 µM, a Cmax [26] of 0.04 µM and a Cmax [27] of 0.25 µM. It also gave a Cmax [28] of 1.05 µM and an IC50 [11] of 71.8 to 72 µM.

In the case of C[N+]1(CC2CC2)CC[C@]23c4c5ccc(O)c4O[C@H]2C(=O)CC[C@@]3(O)[C@H]1C5 (stereo not given in full) [METHYLNALTREXONE], the microsomal CLint [29] is reported as 32 µL/min/mg, the Activity (HEK293 [17]) is reported as “Active” and the Activity (HEK293 [18]) is reported as “inactive”. For the same compound, the Km at 2 min (OCT1 (SLC22A1) [30]) was 20 to 20.3 µM, the Activity (HEK293 [19]) was “inactive” and the fCmax [31] was 64.93 µM. The Activity (HEK293 [20]) was “Active”, the Vmax [32] was 371.9 pmol/min/mg and the fCmax [33] was 0.12 µM. The Activity (HEK293 [23]) was “inactive”, the IC50 [11] was 234 µM and the Cmax [34] was 0.14 µM. The Activity (HEK293 [35]) was “inactive” and the Activity (HEK293 [24]) was “inactive”.

Compound CCOC(=O)[C@@]1(c2ccccc2)CCC=C[C@@H]1N(C)C has a fCmax [36] of 2.49 µM, a Cmax [37] of 3.31 µM and an uptake ratio at 2 min, 0.1 µM (OCT1 (SLC22A1) [2]) of 1.3. It also gave a Ratio [38] of 0.002, a fCmax [39] of 10.58 µM and a Ratio [40] of 0.064. The Papp (in vitro) was 316 nm/s, the uptake ratio at 2 min, 0.05 µM (OCT1 (SLC22A1) [6]) was 1.3 and the Cmax [41] was 0.11 µM. For the same compound, the fCmax [42] was 8.18 µM, the Ratio [43] was 0.211 and the uptake ratio at 2 min, 0.5 µM (OCT1 (SLC22A1) [9]) was 1.3. The Ratio [44] was 0.273, the fCmax [45] was 0.08 µM and the IC50 [11] was 38.7 µM.
